# ChEMBL document CHEMBL5036349, “Development of potent dual PDK1/AurA kinase inhibitors for cancer therapy: Lead-optimization, structural insights, and ADME-Tox profile” (Eur J Med Chem, 2021)
# Columns and labels:
# PC-3 [1] = test: Cytotoxicity against human PC-3 cells measured after 72 hrs by MTT assay; type: functional, cell-based; details: PC-3, 72 h
# NCI-H69 [2] = test: Cytotoxicity against human NCI-H69 cells at 30 uM assessed as cell proliferation rate measured after 72 hrs by MTT assay relative to control; type: functional
# Rec1 [3] = test: Cytotoxicity against human REC1 cells at 30 uM assessed as cell proliferation rate measured after 72 hrs by MTT assay relative to control; type: functional
# A673 [4] = test: Cytotoxicity against human A673 cells measured after 72 hrs by MTT assay; type: functional, cell-based; details: A673, 72 h
# HCT-116 [5] = test: Cytotoxicity against human HCT-116 cells at 30 uM assessed as cell proliferation rate measured after 72 hrs by MTT assay relative to control; type: functional
# PC-3 [6] = test: Cytotoxicity against human PC-3 cells at 30 uM assessed as cell proliferation rate measured after 72 hrs by MTT assay relative to control; type: functional
# [7] = Cytotoxicity against human 6647 cells measured after 72 hrs by MTT assay; type: functional, cell-based; details: Homo sapiens, 6647, 72 h
# [8] = Cytotoxicity against human TC71 cells measured after 72 hrs by MTT assay; type: functional, cell-based; details: TC-71, 72 h
# IGROV-1 [9] = test: Cytotoxicity against human IGROV-1 cells at 30 uM assessed as cell proliferation rate measured after 72 hrs by MTT assay relative to control; type: functional
# CAKI-1 [10] = test: Cytotoxicity against human CAKI-1 cells at 30 uM assessed as cell proliferation rate measured after 72 hrs by MTT assay relative to control; type: functional
# NCI-H69 [11] = test: Cytotoxicity against human NCI-H69 cells measured after 72 hrs by MTT assay; type: functional, cell-based; details: NCI-H69, 72 h
# TC-32 [12] = test: Cytotoxicity against human TC-32 cells at 30 uM assessed as cell proliferation rate measured after 72 hrs by MTT assay relative to control; type: functional
# NCI-H82 [13] = test: Cytotoxicity against human NCI-H82 cells measured after 72 hrs by MTT assay; type: functional, cell-based; details: NCI-H82, 72 h
# 786-0 [14] = test: Cytotoxicity against human 786-0 cells at 30 uM assessed as cell proliferation rate measured after 72 hrs by MTT assay relative to control; type: functional
# SK-N-MC [15] = test: Cytotoxicity against human SK-N-MC cells at 30 uM assessed as cell proliferation rate measured after 72 hrs by MTT assay relative to control; type: functional
# HCT-116 [16] = test: Cytotoxicity against human HCT-116 cells measured after 72 hrs by MTT assay; type: functional, cell-based; details: HCT-116, 72 h
# A673 [17] = test: Cytotoxicity against human A673 cells at 30 uM assessed as cell proliferation rate measured after 72 hrs by MTT assay relative to control; type: functional
# MCF7 [18] = test: Cytotoxicity against human MCF7 cells at 30 uM assessed as cell proliferation rate measured after 72 hrs by MTT assay relative to control; type: functional
# CAKI-1 [19] = test: Cytotoxicity against human CAKI-1 cells measured after 72 hrs by MTT assay; type: functional, cell-based; details: CAKI-1, 72 h
# [20] = (§1) Cytotoxicity against human TC71 cells at 30 uM assessed as cell proliferation rate measured after 72 hrs by MTT assay relative to control; type: functional; details: TC-71
# NCI-H82 [21] = test: Cytotoxicity against human NCI-H82 cells at 30 uM assessed as cell proliferation rate measured after 72 hrs by MTT assay relative to control; type: functional
# SK-N-MC [22] = test: Cytotoxicity against human SK-N-MC cells measured after 72 hrs by MTT assay; type: functional, cell-based
# MCF7 [23] = test: Cytotoxicity against human MCF7 cells measured after 72 hrs by MTT assay; type: functional, cell-based; details: MCF7, 72 h
# [24] = (§2) Cytotoxicity against human 6647 cells at 30 uM assessed as cell proliferation rate measured after 72 hrs by MTT assay relative to control; type: functional
# IGROV-1 [25] = test: Cytotoxicity against human IGROV-1 cells measured after 72 hrs by MTT assay; type: functional, cell-based; details: IGROV-1, 72 h
# 786-0 [26] = test: Cytotoxicity against human 786-0 cells measured after 72 hrs by MTT assay; type: functional, cell-based; details: 786-0, 72 h
# TC-32 [27] = test: Cytotoxicity against human TC-32 cells measured after 72 hrs by MTT assay; type: functional, cell-based; details: TC-32, 72 h
# Rec1 [28] = test: Cytotoxicity against human REC1 cells measured after 72 hrs by MTT assay; type: functional, cell-based; details: Rec1, 72 h
# TC-71 [29] = test: as §1; type: functional
# 6647 = test: as §2; type: functional
# [30] = Cytotoxicity against hTERT cells at 10 uM measured after 24 to 48 hrs by Cell-titer glo assay relative to control; type: cell-based; details: human, time 24-48 hrs
# [31] = biological target: T1, Protein deacetylase HDAC6 (Homo sapiens) (UniProt Q9UBN7); test: Inhibition on human recombinant HDAC6 at 10 uM measured after 20 min by luminescence glo assay
# T1 sequence (whole entry): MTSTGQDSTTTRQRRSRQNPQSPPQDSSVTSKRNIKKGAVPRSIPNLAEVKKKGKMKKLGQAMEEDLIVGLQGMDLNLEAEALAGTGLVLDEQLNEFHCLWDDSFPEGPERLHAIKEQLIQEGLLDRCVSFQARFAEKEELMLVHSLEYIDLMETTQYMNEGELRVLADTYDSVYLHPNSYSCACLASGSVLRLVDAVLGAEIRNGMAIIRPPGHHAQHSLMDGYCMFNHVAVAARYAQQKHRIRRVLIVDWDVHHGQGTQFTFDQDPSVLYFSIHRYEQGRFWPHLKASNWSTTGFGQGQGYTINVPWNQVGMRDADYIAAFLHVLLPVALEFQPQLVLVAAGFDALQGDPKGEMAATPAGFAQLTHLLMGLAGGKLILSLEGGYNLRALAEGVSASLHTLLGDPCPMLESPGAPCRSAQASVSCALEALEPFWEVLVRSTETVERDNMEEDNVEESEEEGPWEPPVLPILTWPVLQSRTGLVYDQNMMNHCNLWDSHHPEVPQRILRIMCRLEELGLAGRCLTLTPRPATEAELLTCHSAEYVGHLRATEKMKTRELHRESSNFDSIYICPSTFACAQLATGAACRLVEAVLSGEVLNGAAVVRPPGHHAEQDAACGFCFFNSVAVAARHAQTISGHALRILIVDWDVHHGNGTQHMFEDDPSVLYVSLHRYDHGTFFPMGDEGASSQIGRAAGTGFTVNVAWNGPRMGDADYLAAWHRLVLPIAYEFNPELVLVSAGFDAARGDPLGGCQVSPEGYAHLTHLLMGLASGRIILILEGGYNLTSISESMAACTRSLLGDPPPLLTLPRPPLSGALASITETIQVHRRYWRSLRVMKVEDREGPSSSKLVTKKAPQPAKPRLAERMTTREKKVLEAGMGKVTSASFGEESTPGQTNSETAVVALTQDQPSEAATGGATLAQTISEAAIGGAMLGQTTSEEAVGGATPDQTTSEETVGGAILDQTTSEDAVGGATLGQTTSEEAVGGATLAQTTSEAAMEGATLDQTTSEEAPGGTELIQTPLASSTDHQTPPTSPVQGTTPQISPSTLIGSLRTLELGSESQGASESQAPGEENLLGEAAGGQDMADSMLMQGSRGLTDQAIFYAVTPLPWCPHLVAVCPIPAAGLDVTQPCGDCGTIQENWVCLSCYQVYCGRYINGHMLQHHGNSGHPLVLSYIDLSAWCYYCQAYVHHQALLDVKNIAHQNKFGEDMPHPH
# [32] = biological target: 3',5'-cyclic-AMP phosphodiesterase 4C (Homo sapiens) (UniProt Q08493); test: Inhibition of PDE4C1 (unknown origin) at 10 uM incubated for 60 mins followed by addition of binding agent and measured after 20 mins by Fluorescence Polarization assay relative to control; details: time 80.0 min
# 3',5'-cyclic-AMP phosphodiesterase 4C (Homo sapiens), sequence (Q08493 whole entry): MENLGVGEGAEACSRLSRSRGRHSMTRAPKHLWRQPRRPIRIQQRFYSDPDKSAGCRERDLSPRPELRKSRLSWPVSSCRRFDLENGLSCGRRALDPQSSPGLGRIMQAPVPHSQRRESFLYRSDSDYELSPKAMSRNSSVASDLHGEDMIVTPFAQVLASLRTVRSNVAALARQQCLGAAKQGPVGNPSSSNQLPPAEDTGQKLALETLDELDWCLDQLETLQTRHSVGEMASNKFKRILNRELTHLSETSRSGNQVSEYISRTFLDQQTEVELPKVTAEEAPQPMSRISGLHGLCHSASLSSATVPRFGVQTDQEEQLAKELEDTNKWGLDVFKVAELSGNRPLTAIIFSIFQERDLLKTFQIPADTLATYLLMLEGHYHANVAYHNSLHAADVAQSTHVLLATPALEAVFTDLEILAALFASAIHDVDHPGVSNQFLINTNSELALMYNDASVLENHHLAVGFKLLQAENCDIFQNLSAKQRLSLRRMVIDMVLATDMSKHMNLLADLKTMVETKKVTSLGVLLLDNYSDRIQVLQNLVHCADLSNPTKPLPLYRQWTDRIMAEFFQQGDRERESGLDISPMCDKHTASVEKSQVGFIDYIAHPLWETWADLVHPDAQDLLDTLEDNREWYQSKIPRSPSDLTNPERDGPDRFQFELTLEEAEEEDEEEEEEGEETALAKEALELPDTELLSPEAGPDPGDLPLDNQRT
# TC-71 [33] = test: Anticlonogenic activity against human TC71 cells assessed as reduction of cell survival at 0.5 to 20 uM measured after 10 days by SRB staining clonogenic survival assay; type: functional, cell-based; details: dose 0.5-20 µM, time 10.0 day
# HCT-116 [34] = test: Anticlonogenic activity against human HCT-116 cells assessed as reduction of cell survival at 0.5 to 20 uM measured after 10 days by SRB staining clonogenic survival assay; type: functional, cell-based; details: dose 0.5-20 µM, time 10.0 day
# [35] = biological target: Aurora kinase B (Homo sapiens) (UniProt Q96GD4); test: Inhibition of Aurora B kinase (unknown origin) at 10 uM in presence of ATP incubated for 30 min followed by addition of kinase glo-reagent measured after 20 mins by Luminescence based plate reader assay relative to control; details: time 50.0 min
# Aurora kinase B (Homo sapiens), sequence (Q96GD4 whole entry): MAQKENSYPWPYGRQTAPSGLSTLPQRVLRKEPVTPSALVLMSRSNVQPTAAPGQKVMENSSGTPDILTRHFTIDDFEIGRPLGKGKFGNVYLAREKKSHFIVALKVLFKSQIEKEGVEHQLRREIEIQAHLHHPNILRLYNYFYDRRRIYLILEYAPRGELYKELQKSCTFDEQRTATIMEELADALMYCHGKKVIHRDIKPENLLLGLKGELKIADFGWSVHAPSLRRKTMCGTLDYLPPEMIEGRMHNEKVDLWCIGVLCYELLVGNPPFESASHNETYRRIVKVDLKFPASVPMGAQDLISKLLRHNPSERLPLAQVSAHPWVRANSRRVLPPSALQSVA
# [36] = biological target: Histone deacetylase 4 (Homo sapiens) (UniProt P56524); test: Inhibition on human recombinant HDAC4 at 10 uM measured after 20 min by luminescence glo assay
# Histone deacetylase 4 (Homo sapiens), sequence (P56524 whole entry): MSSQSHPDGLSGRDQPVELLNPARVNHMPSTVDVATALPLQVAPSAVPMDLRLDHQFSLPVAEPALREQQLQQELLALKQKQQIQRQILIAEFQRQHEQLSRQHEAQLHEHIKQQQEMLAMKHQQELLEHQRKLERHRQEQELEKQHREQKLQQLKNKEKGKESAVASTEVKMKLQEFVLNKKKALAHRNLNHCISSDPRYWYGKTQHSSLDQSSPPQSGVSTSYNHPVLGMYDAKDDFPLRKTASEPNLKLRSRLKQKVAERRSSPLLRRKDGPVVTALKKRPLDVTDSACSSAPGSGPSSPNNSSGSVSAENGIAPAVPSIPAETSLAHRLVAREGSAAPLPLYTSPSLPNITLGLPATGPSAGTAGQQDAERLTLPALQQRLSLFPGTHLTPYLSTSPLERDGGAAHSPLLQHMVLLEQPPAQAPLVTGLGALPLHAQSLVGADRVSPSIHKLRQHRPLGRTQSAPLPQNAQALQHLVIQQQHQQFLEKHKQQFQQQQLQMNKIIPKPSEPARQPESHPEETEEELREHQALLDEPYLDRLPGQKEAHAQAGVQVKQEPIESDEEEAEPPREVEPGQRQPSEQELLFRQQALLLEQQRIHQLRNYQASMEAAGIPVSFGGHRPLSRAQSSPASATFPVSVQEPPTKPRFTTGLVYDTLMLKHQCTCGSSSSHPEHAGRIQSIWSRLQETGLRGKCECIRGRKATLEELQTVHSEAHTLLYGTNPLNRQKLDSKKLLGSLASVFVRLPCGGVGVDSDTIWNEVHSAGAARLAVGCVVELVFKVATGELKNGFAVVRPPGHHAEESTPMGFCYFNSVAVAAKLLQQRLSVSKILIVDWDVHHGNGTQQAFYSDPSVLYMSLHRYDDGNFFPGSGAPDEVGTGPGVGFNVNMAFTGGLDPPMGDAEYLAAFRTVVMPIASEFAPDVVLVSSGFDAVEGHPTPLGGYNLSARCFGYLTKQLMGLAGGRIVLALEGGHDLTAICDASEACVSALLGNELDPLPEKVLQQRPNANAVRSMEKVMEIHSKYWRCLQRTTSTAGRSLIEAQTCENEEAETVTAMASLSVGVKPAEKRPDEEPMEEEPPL
# [37] = biological target: {'v': 'hERG (KCNH2)', 'o': 'p', 'q': 'Inhibition of human ERG at 10 uM'} (Homo sapiens, UniProt Q12809); test: Inhibition of human ERG at 10 uM relative to control
# {'v': 'hERG (KCNH2)', 'o': 'p', 'q': 'Inhibition of human ERG at 10 uM'}, sequence (Q12809 whole entry): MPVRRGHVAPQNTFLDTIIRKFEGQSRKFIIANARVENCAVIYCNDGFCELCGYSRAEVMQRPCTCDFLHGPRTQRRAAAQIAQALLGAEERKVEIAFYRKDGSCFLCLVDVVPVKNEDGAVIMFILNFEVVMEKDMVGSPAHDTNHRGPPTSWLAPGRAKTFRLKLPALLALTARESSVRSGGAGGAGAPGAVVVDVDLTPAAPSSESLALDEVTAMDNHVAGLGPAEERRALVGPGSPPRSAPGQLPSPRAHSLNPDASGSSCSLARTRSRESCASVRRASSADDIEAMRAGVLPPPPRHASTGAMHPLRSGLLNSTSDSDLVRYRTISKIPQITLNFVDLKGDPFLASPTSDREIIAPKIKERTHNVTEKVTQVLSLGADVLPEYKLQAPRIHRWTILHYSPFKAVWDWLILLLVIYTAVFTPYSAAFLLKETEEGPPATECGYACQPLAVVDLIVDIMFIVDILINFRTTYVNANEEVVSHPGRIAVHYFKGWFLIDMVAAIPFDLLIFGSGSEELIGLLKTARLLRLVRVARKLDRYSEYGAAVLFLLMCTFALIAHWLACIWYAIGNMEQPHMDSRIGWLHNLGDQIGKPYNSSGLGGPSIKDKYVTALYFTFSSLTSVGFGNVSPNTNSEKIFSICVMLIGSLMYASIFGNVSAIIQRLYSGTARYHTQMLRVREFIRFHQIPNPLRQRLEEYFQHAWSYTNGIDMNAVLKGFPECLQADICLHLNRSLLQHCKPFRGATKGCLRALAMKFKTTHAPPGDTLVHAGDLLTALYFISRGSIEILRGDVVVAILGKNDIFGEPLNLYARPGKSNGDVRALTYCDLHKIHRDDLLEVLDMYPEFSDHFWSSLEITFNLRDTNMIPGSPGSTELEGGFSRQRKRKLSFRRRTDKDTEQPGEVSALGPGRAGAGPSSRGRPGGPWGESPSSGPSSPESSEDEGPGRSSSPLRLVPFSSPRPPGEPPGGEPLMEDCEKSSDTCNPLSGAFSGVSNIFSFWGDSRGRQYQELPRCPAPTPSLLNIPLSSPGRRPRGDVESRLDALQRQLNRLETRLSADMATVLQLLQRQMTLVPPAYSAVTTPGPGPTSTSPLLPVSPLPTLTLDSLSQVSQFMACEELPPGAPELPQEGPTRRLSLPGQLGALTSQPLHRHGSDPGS
# [38] = biological target: Histone deacetylase 9 (Homo sapiens) (UniProt Q9UKV0); test: Inhibition on human recombinant HDAC9 at 10 uM measured after 20 min by luminescence glo assay
# Histone deacetylase 9 (Homo sapiens), sequence (Q9UKV0 whole entry): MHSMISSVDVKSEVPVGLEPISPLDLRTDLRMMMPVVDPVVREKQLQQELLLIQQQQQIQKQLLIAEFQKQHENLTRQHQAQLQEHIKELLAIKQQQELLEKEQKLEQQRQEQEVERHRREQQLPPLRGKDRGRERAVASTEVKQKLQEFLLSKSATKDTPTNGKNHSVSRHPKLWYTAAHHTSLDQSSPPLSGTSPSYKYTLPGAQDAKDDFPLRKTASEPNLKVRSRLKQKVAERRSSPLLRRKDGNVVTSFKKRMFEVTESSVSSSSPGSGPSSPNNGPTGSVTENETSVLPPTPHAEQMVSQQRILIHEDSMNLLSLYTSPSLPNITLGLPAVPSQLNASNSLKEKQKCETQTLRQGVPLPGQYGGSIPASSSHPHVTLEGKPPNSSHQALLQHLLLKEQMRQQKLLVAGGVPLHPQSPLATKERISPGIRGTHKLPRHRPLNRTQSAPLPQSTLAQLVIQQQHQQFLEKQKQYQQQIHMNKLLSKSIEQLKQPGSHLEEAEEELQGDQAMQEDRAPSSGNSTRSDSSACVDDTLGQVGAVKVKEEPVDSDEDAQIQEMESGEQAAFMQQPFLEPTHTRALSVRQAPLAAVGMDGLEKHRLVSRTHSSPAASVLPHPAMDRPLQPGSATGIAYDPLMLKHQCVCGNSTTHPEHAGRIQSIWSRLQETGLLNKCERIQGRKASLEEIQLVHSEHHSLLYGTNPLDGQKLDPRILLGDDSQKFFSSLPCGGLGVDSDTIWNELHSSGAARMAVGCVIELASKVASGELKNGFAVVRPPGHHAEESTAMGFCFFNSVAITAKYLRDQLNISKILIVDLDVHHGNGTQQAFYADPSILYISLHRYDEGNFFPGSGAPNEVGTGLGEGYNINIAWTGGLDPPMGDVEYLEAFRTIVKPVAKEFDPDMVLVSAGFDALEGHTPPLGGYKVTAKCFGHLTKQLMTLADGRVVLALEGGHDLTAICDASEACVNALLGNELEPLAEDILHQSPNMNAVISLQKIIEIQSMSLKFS
# [39] = biological target: T2, NAD-dependent protein deacetylase sirtuin-7 (Homo sapiens) (UniProt Q9NRC8); test: Inhibition of human recombinant SIRT7 at 10 uM incubated for 20 mins followed by mixing and measure after 30 mins by Luminescence assay relative to control; details: time 50.0 min
# T2 sequence (whole entry): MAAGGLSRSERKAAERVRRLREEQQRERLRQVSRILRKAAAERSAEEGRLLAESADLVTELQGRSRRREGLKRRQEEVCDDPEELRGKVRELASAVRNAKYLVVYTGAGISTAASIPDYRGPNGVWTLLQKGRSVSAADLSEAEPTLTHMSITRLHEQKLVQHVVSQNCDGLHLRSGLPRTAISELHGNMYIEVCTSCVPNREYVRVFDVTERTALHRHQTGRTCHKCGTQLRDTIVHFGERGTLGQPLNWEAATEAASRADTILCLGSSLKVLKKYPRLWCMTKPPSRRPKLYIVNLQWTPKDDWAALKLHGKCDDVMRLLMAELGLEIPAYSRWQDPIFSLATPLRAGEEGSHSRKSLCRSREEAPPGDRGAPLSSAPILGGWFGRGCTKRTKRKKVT
# HEK293 = test: Cytotoxicity against HEK293 cells at 10 uM measured after 24 to 48 hrs by Cell-titer glo assay relative to control; type: cell-based; details: human, hek293, 10 µM, time 24-48 hrs
# [40] = biological target: T3, Histone deacetylase 8 (Homo sapiens) (UniProt Q9BY41); test: Inhibition on human recombinant HDAC8 at 10 uM measured after 20 min by luminescence glo assay
# T3 sequence (whole entry): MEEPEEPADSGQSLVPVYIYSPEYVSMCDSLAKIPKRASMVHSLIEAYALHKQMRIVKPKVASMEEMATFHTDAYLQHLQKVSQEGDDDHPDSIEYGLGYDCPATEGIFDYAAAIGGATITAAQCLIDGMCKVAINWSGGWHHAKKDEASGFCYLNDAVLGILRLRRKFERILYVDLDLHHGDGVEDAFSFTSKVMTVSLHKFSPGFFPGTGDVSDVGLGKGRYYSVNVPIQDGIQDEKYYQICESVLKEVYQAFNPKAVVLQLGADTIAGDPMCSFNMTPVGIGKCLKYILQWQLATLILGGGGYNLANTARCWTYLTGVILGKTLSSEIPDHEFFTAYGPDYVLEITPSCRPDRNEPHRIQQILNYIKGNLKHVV
Structure (SMILES),IC50 (PC-3 [1]) [µM],IC50 (A673 [4]) [µM],Emax at 30 µM (HCT-116 [5]) [%],IC50 [7] [µM],IC50 [8] [µM],IC50 (NCI-H69 [11]) [µM],Emax at 30 µM (TC-32 [12]) [%],IC50 (NCI-H82 [13]) [µM],Emax at 30 µM (SK-N-MC [15]) [%],IC50 (HCT-116 [16]) [µM],IC50 (CAKI-1 [19]) [µM],IC50 (SK-N-MC [22]) [µM],IC50 (MCF7 [23]) [µM],IC50 (IGROV-1 [25]) [µM],IC50 (786-0 [26]) [µM],IC50 (TC-32 [27]) [µM],IC50 (Rec1 [28]) [µM],other results
NCC(=O)Nc1ccc(-n2nc(C(F)(F)F)cc2-c2ccc3c(ccc4ccccc43)c2)cc1 [AR-12],6.5,2.1,95,0.3,0.8,1.8,75,4,81,2.7,5,6,2.8,3.7,2.9,2,3.8,Emax at 30 µM (NCI-H69 [2]): 80%; Emax at 30 µM (Rec1 [3]): 90%; Emax at 30 µM (PC-3 [6]): 80%; Emax at 30 µM (IGROV-1 [9]): 91%; Emax at 30 µM (CAKI-1 [10]): 95%; Emax at 30 µM (786-0 [14]): 80%; Emax at 30 µM (A673 [17]): 95%; Emax at 30 µM (MCF7 [18]): 89%; Emax at 30 µM [20]: 95%; Emax at 30 µM (NCI-H82 [21]): 90%; Emax at 30 µM [24]: 89%
O=C(O)[C@]1(Cc2cccc(Nc3nccs3)n2)CC[C@@H](Oc2cccc(Cl)c2F)CC1 [MK-5108],> 30,> 30,40,0.6,1.6,> 30,-59,> 30,,16.3,> 30,> 30,> 30,> 30,> 30,5.6,> 30,Emax (TC-71 [29]): 70%; Emax 6647: 82%
Cc1ccc(C(=O)N[C@@H](C(=O)Nc2ccc3c(c2)/C(=C/c2cnc[nH]2)C(=O)N3)c2ccccc2)c(=O)n1Cc1ccc(F)c(F)c1,> 30,> 30,,4.7,> 30,> 30,,> 30,83,> 30,> 30,3,> 30,> 30,> 30,> 30,> 30,Activity [30]: < 25%; inhibition [31]: < 30%; inhibition [32]: < 30%; Activity (TC-71 [33]): Dose-Dependent Effect; Activity (HCT-116 [34]): Dose-Dependent Effect; inhibition [35]: < 20%; inhibition [36]: < 30%; inhibition at 10 µM [37]: 56%; inhibition [38]: < 30%; inhibition [39]: < 30%; Activity (HEK293): < 25%; inhibition [40]: < 30%
